EC50 and IC50 data for 37 compounds are collected here from US11440907B1 (Merck Patent GmbH, priority 2018, dated 2022).

Assay [1] deals with XBP1(u)-luciferase splicing reporter in HepG2 hepatoma cells. The experiment in a line: HepG2 XBP1 reporter assay (XBP1(u)-Luc). It counts as cell-based. Particulars: Homo sapiens, 6 hours after compound addition, Table 3, read-out: XBP1-luc HepG2 1 EC50. In general terms: In a reporter assay the amount or activity of a reporter protein is the signal.
Assay [2] has as its system β-catenin-TCF-mediated reporter transcription activity in Colo 205 cells. The experiment in a line: Colo 205 reporter assay (TCF/LEF promoter-driven firefly luciferase). The class given is cell-based. Particulars: Homo sapiens; Colo 205 TCF/LEF luciferase reporter, 5 hours after compound addition, 384 well; read-out: Colo205 IC50.

As for `Cc1cc(N2CCCOC[C@@H]2c2cc(NC(=O)CCO)ccc2Cl)nc(N)n1` (racemic) [I-174, (+/−)-N-[3-[4-(2-amino-6-methyl-pyrimidin-4-yl)-1,4-oxazepan-3-yl]-4-chloro-phenyl]-3-hydroxy-propanamide], the EC50 (commonly the concentration needed to bring the measured effect to its halfway point) in assay [1] lay in the range of 600 to 2000 nM. Also, the IC50 (usually the concentration at which inhibition is half-maximal) in assay [2] was in the range of 300 to 1000 nM.

On to `Cc1cc(N2CCCOCC2c2ccc(N3CCN(C(=O)C4CC4)CC3)cc2Cl)nc(N)n1` (racemic) [I-273, (+/−)-[4-[4-[4-(2-amino-6-methyl-pyrimidin-4-yl)-1,4-oxazepan-3-yl]-3-chloro-phenyl]piperazin-1-yl]-cyclopropyl-methanone], for which, in assay [1], the EC50 is < 600 nM. For the same compound, the IC50 in assay [2] is < 300 nM.

On to `Cc1cc(N2CCCCCC2c2ccccc2Br)nc(N)n1` (centres unmarked) [I-69], for which the EC50 in assay [1] was < 600 nM. For the same compound, the IC50 in assay [2] is 300 to 1000 nM.

With `Cc1cc(N2CCCOCC2c2ccc(C3CCC(=O)N3C)cc2Cl)nc(N)n1` (racemic) [I-239, (+/−)-5-(4-(4-(2-amino-6-methylpyrimidin-4-yl)-1,4-oxazepan-3-yl)-3-chlorophenyl)-1-methylpyrrolidin-2-one], the EC50 in assay [1] was < 600 nM. Further, the IC50 in assay [2] lay within 300 to 1000 nM.

Take `Cc1cc(N2CCCOCC2c2ccc(OC[C@@H](C)O)cc2Cl)nc(N)n1` (mixture of isomers) [I-232, (+/−)-1-(4-(4-(2-amino-6-methylpyrimidin-4-yl)-1,4-oxazepan-3-yl)-3-chlorophenoxy)propan-2-ol]: in assay [1], the half-maximal effective concentration (EC50) is < 600 nM. Moreover, the 50% inhibitory concentration (IC50) in assay [2] is < 300 nM.

Regarding `Cc1cc(N2CCCCCC2c2ccccc2C)nc(N)n1` (racemic) [I-6, (+/−)-4-methyl-6-(2-(2-(methyl)phenyl)azepan-1-yl)pyrimidin-2-amine], the EC50 in assay [1] fell in the range of 2000 to 5000 nM. The IC50 in assay [2] was in the range of 300 to 1000 nM.

For `Cc1cc(N2CCCOCC2c2ccc(NC3COC3)cc2Cl)nc(N)n1` (centres unmarked) [I-302], the EC50 in assay [1] was < 600 nM. Moreover, the half-maximal inhibitory concentration (IC50) in assay [2] is < 300 nM.

For `Cc1cc(N2CCCOC[C@@H]2c2ccc(N3CC4(COC4)C3)cc2Cl)nc(N)n1` [I-259, 4-[(3S)-3-[2-chloro-4-(2-oxa-6-azaspiro[3.3]heptan-6-yl)phenyl]-1,4-oxazepan-4-yl]-6-methyl-pyrimidin-2-amine], the half-maximal effective concentration (EC50) in assay [1] is < 600 nM. Besides, the IC50 in assay [2] is < 300 nM.

Turning to `Cc1cc(N2CCCOCC2c2cc(NCCO)ccc2Cl)nc(N)n1` (single isomer, unassigned) [I-237], the EC50 in assay [1] is < 600 nM. Also, the 50% inhibitory concentration (IC50) in assay [2] is < 300 nM.

As for `Cc1cc(N2CCCOC[C@@H]2c2ccc(NC3CC3)cc2Cl)nc(N)n1` [I-248, 4-[(3S)-3-[2-chloro-4-(cyclopropylamino)phenyl]-1,4-oxazepan-4-yl]-6-methyl-pyrimidin-2-amine], the EC50 in assay [1] was < 600 nM. Further, the IC50 in assay [2] is < 300 nM.

Take `Cc1cc(N2CCCOCC2c2ccc(N3CCCC3)cc2Cl)nc(N)n1` (racemic) [I-227, (+/−)-4-[3-(2-chloro-4-pyrrolidin-1-yl-phenyl)-1,4-oxazepan-4-yl]-6-methyl-pyrimidin-2-amine]: the 50% effective concentration (EC50) in assay [1] fell in the range of 600 to 2000 nM. The IC50 in assay [2] was in the range of 300 to 1000 nM.

In the case of `Cc1cc(N2CCCCC[C@H]2c2ccccc2Br)nc(N)n1` (single isomer, unassigned) [I-3], the EC50 in assay [1] was < 600 nM. Moreover, the IC50 in assay [2] is < 300 nM.

For the compound `Cc1cc(N2CCCOCC2c2ccc(NC(=O)C(C)(F)F)cc2Cl)nc(N)n1` (racemic) [I-228, (+/−)-N-(4-(4-(2-amino-6-methylpyrimidin-4-yl)-1,4-oxazepan-3-yl)-3-chlorophenyl)-2,2-difluoropropanamide], the EC50 in assay [1] is < 600 nM. Besides, in assay [2], the IC50 was 300 to 1000 nM.

Take `Cc1cc(N2CCCOC[C@@H]2c2cc(Br)ccc2Cl)nc(N)n1` [I-245, 4-[(3S)-3-(5-bromo-2-chloro-phenyl)-1,4-oxazepan-4-yl]-6-methyl-pyrimidin-2-amine]: the EC50 in assay [1] is < 600 nM. In addition, the IC50 in assay [2] was 300 to 1000 nM.

Consider `Cc1cc(N2CCCCCC2c2ccccc2)nc(N)n1` (racemic) [I-4, (+/−)-4-methyl-6-(2-phenylazepan-1-yl)pyrimidin-2-amine], for which the half-maximal effective concentration (EC50) in assay [1] lay in the range of 2000 to 5000 nM. In assay [2], the IC50 is 300 to 1000 nM.

For the compound `Cc1cc(N2CCCOCC2c2ccc(NC(=O)C3(C)COC3)cc2Cl)nc(N)n1` (racemic) [I-282, (+/−)-N-(4-(4-(2-amino-6-methylpyrimidin-4-yl)-1,4-oxazepan-3-yl)-3-chlorophenyl)-3-methyloxetane-3-carboxamide], the EC50 in assay [1] lay within 600 to 2000 nM. For the same compound, the half-maximal inhibitory concentration (IC50) in assay [2] fell in the range of 300 to 1000 nM.

For `Cc1cc(N2CCCOCC2c2ccc(C3CCOC3)cc2Cl)nc(N)n1` (racemic) [I-238, (+/−)-4-(3-(2-chloro-4-(tetrahydrofuran-3-yl)phenyl)-1,4-oxazepan-4-yl)-6-methylpyrimidin-2-amine], the EC50 in assay [1] is < 600 nM. Besides, in assay [2], the IC50 was < 300 nM.

Turning to `COc1c(F)cccc1C1CCCCCN1c1cc(C)nc(N)n1` (centres unmarked) [I-287], the EC50 in assay [1] is ≥ 5000 nM. In addition, in assay [2], the IC50 was 300 to 1000 nM.

On to `Cc1cc(N2CCCOCC2c2ccc(C3COC3)cc2Cl)nc(N)n1` (racemic) [I-255, (+/−)-4-[3-[2-chloro-4-(oxetan-3-yl)phenyl]-1,4-oxazepan-4-yl]-6-methyl-pyrimidin-2-amine], for which the half-maximal effective concentration (EC50) in assay [1] lay within 600 to 2000 nM. For the same compound, the IC50 in assay [2] is < 300 nM.

On to `Cc1cc(N2CCCOCC2c2cc(NCCCO)ccc2Cl)nc(N)n1` (racemic) [I-249, (+/−)-3-[3-[4-(2-amino-6-methyl-pyrimidin-4-yl)-1,4-oxazepan-3-yl]-4-chloro-anilino]propan-1-ol], for which the EC50 in assay [1] is < 600 nM. In addition, the IC50 in assay [2] is < 300 nM.

With `COCC(OC)c1ccc(C2COCCCN2c2cc(C)nc(N)n2)c(Cl)c1` (centres unmarked) [I-307], the EC50 in assay [1] is < 600 nM. In addition, the IC50 in assay [2] is < 300 nM.

For `Cc1cc(N2CCCOC[C@H]2c2ccc(NC(=O)C(C)(C)O)cc2Cl)nc(N)n1` (racemic) [I-277, (+/−)-N-(4-(4-(2-amino-6-methylpyrimidin-4-yl)-1,4-oxazepan-3-yl)-3-chlorophenyl)-2-hydroxy-2-methylpropanamide], the EC50 in assay [1] is < 600 nM. Besides, in assay [2], the IC50 is < 300 nM.

For the compound `Cc1cc(N2CCCOC[C@@H]2c2ccc(NC3CNC3)cc2Cl)nc(N)n1` [I-257, 4-[(3S)-3-[4-(azetidin-3-ylamino)-2-chloro-phenyl]-1,4-oxazepan-4-yl]-6-methyl-pyrimidin-2-amine], in assay [1], the EC50 was < 600 nM. Also, in assay [2], the IC50 was 300 to 1000 nM.

For `Cc1cc(N2CCCOCC2c2ccc(OCC3(CO)CC3)cc2Cl)nc(N)n1` (racemic) [I-233, (+/−)-[1-[[4-[4-(2-amino-6-methyl-pyrimidin-4-yl)-1,4-oxazepan-3-yl]-3-chloro-phenoxy]methyl]-cyclopropyl]methanol], the half-maximal effective concentration (EC50) in assay [1] lay in the range of 600 to 2000 nM. In addition, the 50% inhibitory concentration (IC50) in assay [2] is < 300 nM.

Turning to `Cc1cc(N2CCCOC[C@@H]2c2ccc(NCC3(C)COC3)cc2Cl)nc(N)n1` [I-240, 4-[(3S)-3-[2-chloro-4-[(3-methyloxetan-3-yl)methylamino]phenyl]-1,4-oxazepan-4-yl]-6-methyl-pyrimidin-2-amine], the 50% effective concentration (EC50) in assay [1] is < 600 nM. Also, the IC50 in assay [2] was < 300 nM.

For the compound `Cc1cc(N2CCCCC[C@H]2c2ccccc2Cl)nc(N)n1` (single isomer, unassigned) [I-14], in assay [1], the EC50 was < 600 nM. Further, in assay [2], the IC50 was < 300 nM.

On to `Cc1cc(N2CCCOCC2c2ccc(NC(=O)C(C)(C)O)cc2Cl)nc(N)n1` (centres unmarked) [I-308], for which, in assay [1], the EC50 is < 600 nM. Besides, in assay [2], the IC50 was < 300 nM.

`Cc1cc(N2CCCOC[C@@H]2c2ccc(N3CCC(C)(O)CC3)cc2Cl)nc(N)n1` [I-242, (5)-1-(4-(4-(2-amino-6-methylpyrimidin-4-yl)-1,4-oxazepan-3-yl)-3-chlorophenyl)-4-methylpiperidin-4-ol]: the EC50 in assay [1] is < 600 nM. Further, the IC50 in assay [2] is < 300 nM.

Take `Cc1cc(N2CCCOCC2c2ccc(C(CO)CO)cc2Cl)nc(N)n1` (racemic) [I-236, (+/−)-2-(4-(4-(2-amino-6-methylpyrimidin-4-yl)-1,4-oxazepan-3-yl)-3-chlorophenyl)propane-1,3-diol]: in assay [1], the EC50 is < 600 nM. Moreover, the IC50 in assay [2] is < 300 nM.

Turning to `Cc1cc(N2CCCOC[C@@H]2c2ccc(NC3(C)COC3)cc2Cl)nc(N)n1` [I-266, 4-[(3S)-3-[2-chloro-4-[(3-methyloxetan-3-yl)amino]phenyl]-1,4-oxazepan-4-yl]-6-methyl-pyrimidin-2-amine], in assay [1], the EC50 was < 600 nM. The IC50 in assay [2] was < 300 nM.

Turning to `COc1ccc(F)cc1[C@@H]1CCCCCN1c1cc(C)nc(N)n1` [I-285], the EC50 in assay [1] lay in the range of 2000 to 5000 nM. Moreover, the half-inhibitory concentration (IC50) in assay [2] fell in the range of 300 to 1000 nM.

With `CCc1ccccc1C1CCCCCN1c1cc(C)nc(N)n1` (racemic) [I-45, (+/−)-4-(2-(2-ethylphenyl)azepan-1-yl)-6-methylpyrimidin-2-amine], in assay [1], the EC50 fell in the range of 600 to 2000 nM. Besides, in assay [2], the IC50 lay within 300 to 1000 nM.

On to `CC(=O)Nc1cc([C@H]2COCCCN2c2cc(C)nc(N)n2)c(Cl)cc1F` (single isomer, unassigned) [I-271], for which the concentration giving a half-maximal response (EC50) in assay [1] is < 600 nM. Also, the half-inhibitory concentration (IC50) in assay [2] lay in the range of 300 to 1000 nM.

As for `Cc1cc(N2CCCOCC2c2ccc(C3CCCN3)cc2Cl)nc(N)n1` (racemic) [I-267], the concentration for a half-maximal effect (EC50) in assay [1] was < 600 nM. Also, in assay [2], the IC50 is < 300 nM.

`Cc1cc(N2CCCOCC2c2cc(NC(=O)C3CC3)ccc2Cl)nc(N)n1` (racemic) [I-241, (+/−)-N-[3-[4-(2-amino-6-methyl-pyrimidin-4-yl)-1,4-oxazepan-3-yl]-4-chloro-phenyl]cyclopropanecarboxamide]: in assay [1], the EC50 was < 600 nM. In assay [2], the 50% inhibitory concentration (IC50) was < 300 nM.

With `Cc1cc(N2CCCOC[C@@H]2c2ccc(NCC(C)(C)O)cc2Cl)nc(N)n1` [I-247, 1-[4-[(3S)-4-(2-amino-6-methyl-pyrimidin-4-yl)-1,4-oxazepan-3-yl]-3-chloro-anilino]-2-methyl-propan-2-ol], the half-maximal effective concentration (EC50) in assay [1] is < 600 nM. The IC50 in assay [2] was < 300 nM.

As to `Cc1cc(N2CCCOC[C@@H]2c2ccc(NC3CN(C(=O)OC(C)(C)C)C3)cc2Cl)nc(N)n1` [I-256, Tert-butyl 3-[4-[(3S)-4-(2-amino-6-methyl-pyrimidin-4-yl)-1,4-oxazepan-3-yl]-3-chloro-anilino]azetidine-1-carboxylate], the EC50 in assay [1] is < 600 nM. The IC50 in assay [2] was < 300 nM.
